{"source": "patent US20250221932A1", "about": "“IMMUNE ENHANCEMENT OF CANCER TREATMENT” (Spark Therapeutics, Inc., priority 2022, published 2025)", "key": {"C1498 cells": {"test_system": "C1498 cells", "assay": "Acute myeloid leukemia (AML) model, survival", "assay_type": "in vivo, mice (C57BL/6)", "conditions": "50 μg i.v. day 0, 3, 6; FIG. 9", "method": "The ability of nanoparticle dsDNA delivery to inhibit leukemia was evaluated in a mouse model for acute myeloid leukemia (AML). The AML model was established by intravenously (i.v.) injecting C57BL/6 mice with 1×10^6 C1498 cells. (See Zhang et al., Blood 2009; 114 (8): 1545-1552 and Curran et al., 2016, Cell Reports 15, 2357-2366).\n(§1) Three days post-tumor cell injection, treatment (vehicle, DNA-LNP (10 μg), ADU-S100 (50 μg)) was provided by 100 μL i.v. administration given three times (day 0, 3, 6). Vehicle was made of 20% Glucose/PBS solution. LNP composition (in mole %) was Lipid 9, ˜50% (Lipid 9 is further described in Section I.A. supra and Sabnis et al., (2018) Molecular Therapy 26:6, 1509-1519); C14-PEG2000, ˜1.5%; cholesterol, ˜38.5%; and distearoylphosphatidylcholine (DSPC), ˜10%. ADU-S100 is a STING agonist (MedChemExpress).\n(§2) Serum was collected 4 hours after the first dose for cytokine/chemokine analyses. Mice (n=8) were observed daily for abnormalities and euthanized individually when the animal reached the humane endpoint.\nThe ability of nanoparticle dsDNA delivery to inhibit leukemia was evaluated in the AML mouse model described in Example 5. Three days post-tumor cell injection, administration of vehicle, LNP (same amount of LNP as used in 5 μg DNA-LNP), DNA-LNP (1 μg), DNA-LNP (5 μg) was provided by 100 μL i.v. given three times (day 0, 3, 6). […]"}, "[1]": {"test_system": "serum cytokines/chemokines", "assay": "Serum cytokine levels 4 hours after dosing in the AML model", "assay_type": "in vivo, mice (C57BL/6)", "conditions": "4 hours after first i.v. dose, 50 μg", "method": "as §1, §2\nThree days post-tumor cell injection, treatment (vehicle, DNA-LNP (5 μg), DNA-LNP2 (5 μg)) was provided by 100 μL i.v. administration given three times (day 0, 3, 6). Serum was collected 4 hours after the first dose for cytokine/chemokine analyses. Mice (n=8) were observed daily for abnormalities and euthanized individually when the animal reached the humane endpoint."}}}
{"smiles": "Nc1ncnc2c1ncn2[C@@H]1O[C@@H]2COP(=O)([S-])O[C@@H]3[C@H](O)[C@@H](COP([O-])(=S)O[C@H]2[C@H]1O)O[C@H]3n1cnc2c(N)ncnc21.[Na+].[Na+]", "note": "(stereo partly shown) [ADU-S100]", "values": [{"measurement": "survival in the AML model", "setting": "C1498 cells", "result": "increased survival"}, {"measurement": "Serum level GRO alpha, Average", "setting": "[1]", "result": 134, "unit": "pg/mL"}, {"measurement": "Serum level IFN alpha, Average", "setting": "[1]", "result": 1775, "unit": "pg/mL"}, {"measurement": "Serum level IFN beta, Average", "setting": "[1]", "result": 2819, "unit": "pg/mL"}, {"measurement": "Serum level IFN gamma, Average", "setting": "[1]", "result": 7, "unit": "pg/mL"}, {"measurement": "Serum level IL-6, Average", "setting": "[1]", "result": 2617, "unit": "pg/mL"}, {"measurement": "Serum level IL-18, Average", "setting": "[1]", "result": 150, "unit": "pg/mL"}, {"measurement": "Serum level MCP-1, Average", "setting": "[1]", "result": 5571, "unit": "pg/mL"}, {"measurement": "Serum level MIP-1 beta, Average", "setting": "[1]", "result": 640, "unit": "pg/mL"}, {"measurement": "Serum level TNF alpha, Average", "setting": "[1]", "result": 732, "unit": "pg/mL"}]}
